Assay results as given in US9815864B2, “Substituted nucleosides, nucleotides and analogs thereof” (Alios BioPharma, Inc., priority 2013, dated 2017).
Like-named read-outs stand apart in the source and are kept apart here.

Legend:
NV genome in HG23 cells = assay: Norovirus replicon assay (HG23 cells, NV genome by qRT-PCR); assay type: cell-based, genogroup 1 norovirus
Murine norovirus (MNV-1) = assay: Norovirus MNV-1 antiviral assay (CPE reduction, CellTiter-Glo, RAW 264.7 cells); assay type: cell-based
[1] = molecular target: Norovirus polymerase (NoVpol, genotype II) (Lordsdale virus, UniProt P54634); assay: biochemical; conditions: 50 nM recombinant enzyme, 2.5 hours at 30° C.; read-out: IC50
[2] = Norovirus, HG23 cells, reduction of NV genome vs mock-medium at 48 h, read-out: EC50
[3] = RAW264.7, 72 h, RAW 264.7 cells infected with MNV-1 (MOI of 0.001), 3 days, read-out: EC50
[4] = HG23 cells, reduction of NV genome vs mock-medium at 48 h, read-out: EC50
[5] = RAW 264.7 cells infected with MNV-1 (MOI of 0.001), 3 days, read-out: EC50

Chain of Norovirus polymerase (NoVpol, genotype II) (P54634 1190-1699 limits assumed): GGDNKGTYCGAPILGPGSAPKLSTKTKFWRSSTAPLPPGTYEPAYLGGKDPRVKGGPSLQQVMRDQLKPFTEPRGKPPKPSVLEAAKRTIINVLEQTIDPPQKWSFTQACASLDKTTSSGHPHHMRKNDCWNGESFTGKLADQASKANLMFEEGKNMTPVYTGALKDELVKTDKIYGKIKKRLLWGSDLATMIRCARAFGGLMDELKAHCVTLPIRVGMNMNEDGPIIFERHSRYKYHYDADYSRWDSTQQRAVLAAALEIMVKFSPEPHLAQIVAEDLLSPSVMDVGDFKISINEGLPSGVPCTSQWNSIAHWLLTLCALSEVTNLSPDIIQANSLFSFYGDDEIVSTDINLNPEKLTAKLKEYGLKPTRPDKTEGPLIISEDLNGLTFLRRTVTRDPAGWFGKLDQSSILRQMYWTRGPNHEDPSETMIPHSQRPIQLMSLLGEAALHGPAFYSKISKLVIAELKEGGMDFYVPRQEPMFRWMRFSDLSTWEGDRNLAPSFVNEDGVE

| SMILES | EC50 (NV genome in HG23 cells; [2]) [µM] | EC50 (Murine norovirus (MNV-1); [3]) [µM] | IC50 [1] [µM] | further results |
| --- | --- | --- | --- | --- |
| Nc1ccn([C@@H]2O[C@@](CO)(CF)[C@@H](O)[C@H]2F)c(=O)n1 [Compound 23a] | 10 to 100 | 1 to 10 |  |  |
| [N-]=[N+]=NC[C@]1(CO)O[C@@H](n2ccc(N)nc2=O)[C@H](F)[C@@H]1O [Compound 113a] | 1 to 10 | 10 to 100 |  |  |
| CCOc1nc(N)nc2c1ncn2[C@@H]1O[C@](F)(COP(=O)(N[C@@H](C)C(=O)OC2CCCCC2)Oc2ccccc2)[C@@H](O)[C@@]1(C)O (some centres unmarked) [Compound 128a] |  |  |  | EC50 (NV genome in HG23 cells; Norovirus, HG23, 48 h): 1 to 10 µM |
| C#C[C@]1(O)[C@H](n2ccc(=O)[nH]c2=O)O[C@](F)(COP(=O)(N[C@@H](C)C(=O)OC2CCCCC2)Oc2ccccc2)[C@H]1O (some centres unmarked) [Compound 131a] |  |  |  | EC50 (NV genome in HG23 cells; Norovirus, HG23, 48 h): < 1 µM; EC50 (Murine norovirus (MNV-1); MNV-1, RAW264.7, 72 h): 10 to 100 µM |
| CCOc1nc(N)nc2c1ncn2[C@@H]1O[C@](F)(COP(=O)(N[C@@H](C)C(=O)OC2CCCCC2)Oc2ccccc2)[C@@H](F)[C@@]1(C)O (some centres unmarked) [Compound 134a] |  |  |  | EC50 (NV genome in HG23 cells; Norovirus, HG23, 48 h): 1 to 10 µM |
| CCOc1nc(N)nc2c1ncn2[C@@H]1O[C@](F)(CO[P@](=O)(N[C@@H](C)C(=O)OC2CCCCC2)Oc2ccccc2)[C@@H](O)[C@@]1(C)F [Compound 140a] |  |  |  | EC50 (NV genome in HG23 cells; Norovirus, HG23, 48 h): < 1 µM; EC50 (Murine norovirus (MNV-1); MNV-1, RAW264.7, 72 h): 1 to 10 µM |
| CCOc1nc(N)nc2c1ncn2[C@@H]1O[C@](F)(CO[P@@](=O)(N[C@@H](C)C(=O)OC2CCCCC2)Oc2ccccc2)[C@@H](O)[C@@]1(C)F [Compound 141a] |  |  |  | EC50 (NV genome in HG23 cells; [4]): 1 to 10 µM; EC50 (Murine norovirus (MNV-1); [5]): 1 to 10 µM |
| C#C[C@]1(O)[C@H](n2cnc3c(OCC)nc(N)nc32)O[C@](F)(CO[P@](=O)(N[C@@H](C)C(=O)OC2CCCCC2)Oc2ccccc2)[C@H]1O [Compound 142a] |  |  |  | EC50 (NV genome in HG23 cells; [4]): 1 to 10 µM |
| C#C[C@]1(O)[C@H](n2cnc3c(OCC)nc(N)nc32)O[C@](F)(CO[P@@](=O)(N[C@@H](C)C(=O)OC2CCCCC2)Oc2ccccc2)[C@H]1O [Compound 143a] |  |  |  | EC50 (NV genome in HG23 cells; [4]): 1 to 10 µM |
| CCOc1nc(N)nc2c1ncn2[C@@H]1O[C@]2(F)CO[P@](=O)(OC(C)C)O[C@H]2[C@@]1(C)O [Compound 144a] | 1 to 10 | 10 to 100 |  |  |
| CCOc1nc(N)nc2c1ncn2[C@@H]1O[C@]2(F)CO[P@@](=O)(OC(C)C)O[C@H]2[C@@]1(C)O [Compound 145a] |  | 10 to 100 |  |  |
| C#C[C@]1(O)[C@H](n2cnc3c(=O)[nH]c(N)nc32)O[C@](F)(CO)[C@H]1F [Compound 146a] |  | 10 to 100 | < 1 |  |
| C#C[C@]1(F)[C@H](n2cnc3c(OCC)nc(N)nc32)O[C@](F)(COP(=O)(N[C@@H](C)C(=O)OC2CCCCC2)Oc2ccccc2)[C@H]1O (some centres unmarked) [Compound 147a] |  |  |  | EC50 (NV genome in HG23 cells; Norovirus, HG23, 48 h): < 1 µM |
| C#C[C@]1(F)[C@H](n2cnc3c(OCC)nc(N)nc32)O[C@](F)(COP(=O)(N[C@@H](C)C(=O)OC2CCCCC2)Oc2ccccc2)[C@H]1O (some centres unmarked) [Compound 148a] |  |  |  | EC50 (NV genome in HG23 cells; HG23 cells, reduction of NV genome vs mock-medium at 48 h): < 1 µM |
| CCOc1nc(N)nc2c1ncn2[C@@H]1O[C@]2(F)CO[P@](=O)(OC(C)C)O[C@H]2[C@@]1(C)F [Compound 149a] |  |  |  | EC50 (NV genome in HG23 cells; [4]): 1 to 10 µM; EC50 (Murine norovirus (MNV-1); [5]): 10 to 100 µM |
| CCOc1nc(N)nc2c1ncn2[C@@H]1O[C@](CF)(COP(=O)(N[C@@H](C)C(=O)OC2CCCCC2)Oc2ccccc2)[C@@H](O)[C@@]1(C)O (some centres unmarked) [Compound 153a] |  |  |  | EC50 (NV genome in HG23 cells; Norovirus, HG23, 48 h): < 1 µM |
| CC(C)OC(=O)OCOP(=O)(OCOC(=O)OC(C)C)OC[C@@]1(CF)O[C@@H](n2ccc(=O)[nH]c2=O)[C@](C)(O)[C@@H]1O [Compound 156a] | < 1 | 1 to 10 |  |  |
| C#C[C@@]1(O)[C@H](O)[C@@](CF)(COP(=O)(OCOC(=O)OC(C)C)OCOC(=O)OC(C)C)O[C@H]1n1cnc2c(N)ncnc21 [Compound 168a] | < 1 | 10 to 100 |  |  |
| Nc1ccn([C@@H]2O[C@@](CO)(CF)[C@@H](O)C2(F)F)c(=O)n1 [Compound 179a] | 1 to 10 | < 1 |  |  |
| CCOc1nc(N)nc2c1ncn2[C@@H]1O[C@](F)(COP(=O)(OCOC(=O)OC(C)C)OCOC(=O)OC(C)C)[C@@H](O)[C@@]1(C)F [Compound 188a] | < 1 | 1 to 10 |  |  |
| C#C[C@]1(O)[C@H](n2ccc(=O)[nH]c2=O)O[C@](F)(COP(=O)(OCOC(=O)OC(C)C)OCOC(=O)OC(C)C)[C@H]1O [Compound 208a] | < 1 | 10 to 100 |  |  |
| CCOc1nc(N)nc2c1ncn2[C@@H]1O[C@](F)(COP(=O)(OCOC(=O)OC(C)C)OCOC(=O)OC(C)C)[C@@H](O)[C@@]1(C)O [Compound 209a] | < 1 | 1 to 10 |  |  |

| SMILES | EC50 (NV genome in HG23 cells; [2]) [µM] | EC50 (Murine norovirus (MNV-1); [3]) [µM] | IC50 [1] [µM] | further results |
| --- | --- | --- | --- | --- |
| [N-]=[N+]=N[C@]1(CO)O[C@@H](n2ccc(N)nc2=O)[C@@H](O)[C@@H]1O [Compound 266a] | 1 to 10 |  |  |  |
| Nc1ccn([C@@H]2O[C@@](CO)(CCl)[C@@H](O)[C@H]2O)c(=O)n1 [Compound 271a] | 10 to 100 | 10 to 100 |  |  |
| C#C[C@@]1(O)[C@H](O)[C@@H](CO)O[C@H]1n1ccc2c(N)ncnc21 [Compound 291a] | < 1 | < 1 |  |  |
| C#C[C@@]1(n2cnc3c(=O)[nH]c(N)nc32)O[C@H](COP(=O)(O)OP(=O)(O)OP(=O)(O)O)[C@@H](O)[C@H]1F [Compound 335a] |  |  | 1 to 10 |  |
| C[C@@]1(O)[C@H](O)[C@](CO)(CF)O[C@H]1n1ccc(N)nc1=O [Compound 338a] | 10 to 100 |  |  |  |
| C[C@]1(O)[C@H](n2ccc(N)nc2=O)O[C@](C)(COP(=O)(O)OP(=O)(O)OP(=O)(O)O)[C@H]1O [Compound 340a] |  |  | 1 to 10 |  |
| C#C[C@@]1(O)[C@H](O)[C@@](CCl)(COP(=O)(O)OP(=O)(O)OP(=O)(O)O)O[C@H]1n1cnc2c(N)ncnc21 [Compound 342a] |  |  | < 1 |  |
| C[C@@]1(Cl)[C@H](O)[C@@H](COP(=O)(O)OP(=O)(O)OP(=O)(O)O)O[C@H]1n1cnc2c(=O)[nH]c(N)nc21 [Compound 343a] |  |  | < 1 |  |
| C#C[C@@]1(O)[C@H](O)[C@](CO)(CCl)O[C@H]1n1ccc(=O)[nH]c1=O [Compound 344a] | 10 to 100 |  |  |  |
| C[C@@]1(O)[C@H](O)[C@@](CN=[N+]=[N-])(COP(=O)(O)OP(=O)(O)OP(=O)(O)O)O[C@H]1n1ccc(=O)[nH]c1=O [Compound 346a] |  |  | 1 to 10 |  |
| C=C[C@@]1(O)[C@H](O)[C@@](CF)(COP(=O)(O)OP(=O)(O)OP(=O)(O)O)O[C@H]1n1ccc(=O)[nH]c1=O [Compound 348a] |  |  | < 1 |  |
| CC#C[C@@]1(O)[C@H](O)[C@@](CF)(COP(=O)(O)OP(=O)(O)OP(=O)(O)O)O[C@H]1n1ccc(=O)[nH]c1=O [Compound 349a] |  |  | < 1 |  |
| C=CC[C@@]1(O)[C@H](O)[C@@](CF)(COP(=O)(O)OP(=O)(O)OP(=O)(O)O)O[C@H]1n1ccc(=O)[nH]c1=O [Compound 350a] |  |  | 1 to 10 |  |
| C[C@@]1(O)[C@H](O)[C@@](CF)(COP(=O)(O)OP(=O)(O)OP(=O)(O)O)O[C@H]1n1ccc2c(N)ncnc21 [Compound 351a] |  |  | < 1 |  |
| O=c1ccn([C@@H]2O[C@](CF)(COP(=O)(O)OP(=O)(O)OP(=O)(O)O)[C@@H](O)[C@]2(O)CF)c(=O)[nH]1 [Compound 353a] |  |  | 1 to 10 |  |
| C[C@@]1(O)[C@H](O)[C@@](CF)(COP(=O)(O)OP(=O)(O)OP(=O)(O)O)O[C@H]1n1ccc(N)nc1=O [Compound 354a] |  |  | < 1 |  |
| Nc1ccn([C@@H]2O[C@](CF)(COP(=O)(O)OP(=O)(O)OP(=O)(O)O)[C@@H](O)[C@]2(O)CF)c(=O)n1 [Compound 355a] |  |  | < 1 |  |
| N#C[C@@]1(n2ccc(N)nc2=O)O[C@@](CO)(CF)[C@@H](O)[C@H]1O [Compound 376a] |  |  |  | EC50 (Murine norovirus (MNV-1); [5]): 10 to 100 µM |
| [N-]=[N+]=N[C@]1(CO)O[C@@H](n2ccc(N)nc2=O)C(F)(F)[C@@H]1O [Compound 380a] | 1 to 10 |  |  |  |
| [N-]=[N+]=N[C@]1(CO)O[C@@H](n2ccc(N)nc2=O)[C@H](O)[C@@H]1O [Compound 381a] | 10 to 100 |  |  |  |
| [N-]=[N+]=N[C@]1(COP(=O)(O)OP(=O)(O)OP(=O)(O)O)O[C@@H](n2ccc(N)nc2=O)[C@H](O)[C@@H]1O [Compound 383a] |  |  | < 1 |  |
